Test results published in patent publication US20100298376A1, “USE OF NOVEL NEUROPROTECTIVE 3-SUBSTITUTED INDOLONE COMPOSITIONS” (BOARD OF REGENTS, THE UNIVERSITY OF TEXAS SYSTEM, priority 2009, published 2010).
Several values for one entry are separate records, joined by “and”; a condition that tells them apart may be missing. Equal entries are not always repeated. Where two headings read alike, the source gives them in different places.

Tested on: cerebellar granule neurons
Details: for % neuronal survival Mean ± SD: 24 hours, percent of HK control
Protocol: These compounds were analyzed for their neuroprotective activity in vitro. Granule neuron cultures were obtained from dissociated cerebella of 7-8 day old Wistar rats as known to one of ordinary skill in the art. Cells were plated in Basal Eagle's Medium with Earles salts (BME) supplemented with 10% fetal calf serum (FCS), 25 mM KCl, 2 mM glutamine (Invitrogen), and 100 μg/ml gentamycin on dishes (Nunc) coated with poly-L-lysine in 24-well dishes at a density 1×10^6 cells/well. Cytosine arabinofuranoside (10 μM) was added to the culture medium 18-22 hours after plating to prevent replication of non-neuronal cells that yields highly pure culture of granule neurons. The neuronal cultures were maintained for 7-8 days prior to treatments.
This experimental model of neuronal apoptosis has been used widely used to understand the molecular mechanisms underlying neurodegeneration and to identify biological and chemical agents with neuroprotective efficacy. For this, the cells were rinsed once and then maintained in low K^+ medium (serum-free BME medium, 5 mM KCl; referred to as LK), or in the case of control cultures, in high K^+ medium (serum-free BME medium, supplemented with 20 mM KCl; referred to as HK). Each compound was tested at three different concentrations of 1 μM, 5 μM, and 25 μM. The 25 μM concentration was included to evaluate neurotoxicity. For treatments, the chemical compounds (dissolved in dimethylsulfoxide) were added directly to LK medium at the time of the switch from HK at concentrations of 1 μM, 5 μM, or 25 μM. Viability was assessed 24 hours later. Each compound was tested in duplicate (at each of the concentrations) and the experiment repeated at least 3 times. Although all compounds were solubilized in dimethylsulfoxide (DMSO), the amount of DMSO in the cultures never exceeded 0.1% (v/v).
The viability status of neuronal cultures treated with HK, LK, or LK medium supplemented with various compounds was evaluated by phase contrast microscopy and quantified by staining cell nuclei with 4′,6′-diamidino2-phenylindole hydrochloride (DAPI). Briefly, the cells were fixed in 4% paraformaldehyde for 20 minutes at 4′C. After washing in phosphate buffered saline, DAPI (1 μg/ml in phosphate buffered saline) was added for 15 min at room-temperature and viewed under ultraviolet light (260 nm). Cells with condensed or fragmented nuclei were scored as dead. […] Statistical analysis was performed using an unpaired, two-tailed Student's t test, compared to mean neuronal survival of control cultures receiving LK treatment and the quantitative data are presented in Tables 1 and 2 for each compound.

[1] = LK medium, concentration not specified

Row | Compound | % neuronal survival Mean ± SD (Table 2, 1 μM in LK medium) [%] | % neuronal survival Mean ± SD (Table 2, 5 μM in LK medium) [%] | % neuronal survival Mean ± SD (Table 2, 25 μM in LK medium) [%] | neuroprotective activity (in words) [1] | neuroprotective activity (in words) (at 25 μM / high doses) | % neuronal survival Mean ± SD (Table 1, 1 μM in LK medium) | % neuronal survival Mean ± SD (Table 1, 5 μM in LK medium) | % neuronal survival Mean ± SD (Table 1, 25 μM in LK medium) [%] | neurotoxicity (in words) | neuroprotective activity (in words) (at all three concentrations) | neuroprotective activity (in words) (at 1 μM and 5 μM (two lower concentrations))
1 | O=C1Nc2ccccc2/C1=C/c1ccc[nH]1 [Compound 35] | 56.0 ± 17.21 | 51.1 ± 7.06 | 3.88 ± 9.58 | – | – | – | – | – | – | – | –
2 | O=C1Nc2ccc(F)cc2/C1=C/c1ccc[nH]1 [Compound 40] | 58.4 ± 3.98 | 65.7 ± 0.07 | 96.6 ± 1.91 | highest neuroprotective activity | the most effective one | – | – | – | – | – | –
3 | O=C1Nc2ccc(Cl)cc2/C1=C/c1cc(Br)cc(Br)c1 [Compound 8, (Z)-3-(3′,5′-Dibromobenzylidene)-5-chloroindolin-2-one] | – | – | – | substantially less effective | – | 77.7 ± 17.51% | 68.5 ± 11.86% | 64.4 ± 9.65 | – | – | –
4 | O=C1Nc2ccccc2C1=CC=Cc1ccccc1 [Compound 4, 3-(3′-Phenylallylidene)indolin-2-one] | – | – | – | moderately protective | – | 86.0 ± 2.03 % | 83.6 ± 18.88% | 81.1 ± 6.22 | non-toxic | moderately efficacious | –
5 | O=C1Nc2ccc(F)cc2/C1=C\c1cc(Br)c(O)c(Br)c1 [Compound 30, (E)-3-(3′,5′-Dibromo-4′-hydroxybenzylidene)-5-fluoro-indolin-2-one] | – | – | – | not effective | – | 49.3 ± 10.34% | 69.6 ± 8.96% | 18.1 ± 11.00 | toxic | – | –
6 | COc1cc(/C=C2\C(=O)Nc3ccc(F)cc32)cc(OC)c1OC [Compound 32, (Z)-5-Fluoro-3-(3′, 4′,5′-trimethoxybenzylidene)indolin-2-one] | – | – | – | not effective | – | 59.2 ± 1.77% | 51.9 ± 7.14% | 31.9 ± 1.77 | – | – | –
7 | O=C1Nc2ccccc2/C1=C\c1c(Cl)cccc1Cl [Compound 5, (E)-3-(2′,6′-Dichlorobezylidene)indolin-2-one] | – | – | – | ineffective | – | 54.6 ± 10.27% | 52.9 ± 3.94% | 24.5 ± 12.38 | toxic | – | –
8 | O=C1Nc2ccc([N+](=O)[O-])cc2/C1=C\c1c(Cl)cccc1Cl [Compound 24, (E)-3-(2′,6′-Dichlorobenzylidene)-5-nitroindolin-2-one] | – | – | – | – | – | 76.4 ± 9.84 % | 69.9 ± 11.25% | 70.7 ± 8.50 | – | – | –
9 | O=C1Nc2ccccc2/C1=C\c1ccco1 [Compound 45, (E)-3-(Furan-2′-ylmethylene)indoline-2-one] | 70.4 ± 8.35 | 82.8 ± 5.22 | 90.2 ± 3.91 | excellent activity | – | – | – | – | – | – | –
10 | O=C1Nc2ccccc2/C1=C\c1cc(Br)cc(Br)c1 [Compound 2, (E)-3-(3′,5′-Dibromobenzylidene)indolin-2-one] | – | – | – | – | – | 54.7 ± 5.32% | 45.4 ± 4.32% | 46.9 ± 12.30 | – | not protective | –
11 | O=C1Nc2ccc(Cl)cc2/C1=C\c1c(Cl)cccc1Cl [Compound 11, (E)-5-Chloro-3-(2′,6′-dichlorobenzylidene)indolin-2-one] | – | – | – | – | – | 56.4 ± 14.41% | 63.8 ± 3.46% | 45.7 ± 24.05 | – | – | –
12 | O=C1Nc2ccc(F)cc2/C1=C\c1ccccc1 [Compound 33, (E)-3-Benzylidene-5-fluoroindolin-2-one] | – | – | – | not effective | – | 53.4 ± 2.12% | 51.9 ± 15.56% | 31.5 ± 17.51 | – | – | –
13 | O=C1Nc2ccc(Cl)cc2/C1=C/c1ccc[nH]1 [Compound 36] | 71.2 ± 0.02 | 84.0 ± 16.97 | 82.6 ± 10.18 | moderate protective activity | – | – | – | – | – | – | –
14 | (Z)-5-Bromo-3-(thien-2′-ylmethylene)indolin-2-one [Compound 43] | 56.8 ± 5.62 | 58.3 ± 9.82 | 66.4 ± 4.56 | – | – | – | – | – | – | – | –
15 | O=C1Nc2ccc([N+](=O)[O-])cc2/C1=C\C=C\c1ccccc1 [Compound 26] | – | – | – | – | – | 80.1 ± 4.21 % | 78.6 ± 13.04% | 83.9 ± 9.28 | – | – | –
16 | COc1cc(/C=C2\C(=O)Nc3ccccc32)cc(OC)c1OC [Compound 3, (Z)-3-(3′, 4′,5′-Trimethoxybenzylidene)indolin-2-one] | – | – | – | reduced activity | – | 50.8 ± 7.50% | 59.9 ± 7.98% | 61.3 ± 11.35 | – | not protective | –
17 | COc1cc(/C=C2\C(=O)Nc3ccc(Cl)cc32)cc(OC)c1OC [Compound 10, (Z)-5-Chloro-3-(3′, 4′,5′-trimethoxybenzylidene)indolin-2-one] | – | – | – | – | – | 81.1 ± 9.81 % | 71.0 ± 7.26 % | 57.1 ± 10.13 | – | – | –
18 | COc1cc(/C=C2\C(=O)Nc3ccc([N+](=O)[O-])cc32)cc(OC)c1OC [Compound 23, (Z)-3-(3′, 4′,5′-Trimethoxybenzylidene)-5-nitroindolin-2-one] | – | – | – | – | – | 76.6 ± 15.98% | 61.9 ± 5.87% | 69.0 ± 11.26 | – | – | –
19 | CC(=O)c1ccc2c(c1)/C(=C/c1cc(Br)c(O)c(Br)c1)C(=O)N2 [Compound 34, (Z)-5-Acetyl-3-(3′,5′-dibromo-4′-hydroxybenzylidene)indolin-2-one] | – | – | – | superior to Compound 1 | – | 96.8% and 96.8 ± 6.15 % | 110.3% and 110.3 ± 8.50 % | 2.2 ± 1.63 | – | – | impressive neuroprotection
20 | O=C1Nc2ccccc2/C1=C/c1ccccc1[N+](=O)[O-] [Compound 6] | – | – | – | – | – | 75.8 ± 3.20 % | 76.6 ± 7.14% | 81.5 ± 13.72 | – | – | –
21 | CC(=O)c1ccc2c(c1)/C(=C/c1ccc[nH]1)C(=O)N2 [Compound 38] | 69.5 ± 12.61 | 87.3 ± 22.50 | 87.1 ± 24.50 | moderate protective activity | – | – | – | – | – | – | –
22 | O=C1Nc2ccc([N+](=O)[O-])cc2/C1=C\C=Cc1ccccc1[N+](=O)[O-] [Compound 27] | – | – | – | – | – | 78.6 ± 6.84 % | 51.9 ± 7.50% | 78.6 ± 16.33 | – | – | –
